Experimental findings from PMC4818757, “Small molecule inhibitors of the Dishevelled‐CXXC5 interaction are new drug candidates for bone anabolic osteoporosis therapy” (EMBO Molecular Medicine, 2016) are described below.

One series deals with TA-98. The text has this: (§1) Appendix Table S3. Bacterial reverse mutation assay with KY-02327
(§2) a Number of revertant colonies of treated plate/Number of revertant colonies of
(§3) vehicle control plate (Maron & Ames, 1983).
(§4) b Negative control. Vehicle: DMSO

The next series has as its system TA-100.
Source text: as §1, §2, §3, §4

A further series has as its target T1, Dvl PDZ domain (Homo sapiens, UniProt O14640).
T1 construct: plasmid DNA encoding Dvl-1247- 341 (the Dvl PDZ domain); His-tag (TEV-cleavable) (cleaved yes); made in house; host or cells: E. coli BL21 (DE3)
T1 sequence (O14640 247-341 limits assumed): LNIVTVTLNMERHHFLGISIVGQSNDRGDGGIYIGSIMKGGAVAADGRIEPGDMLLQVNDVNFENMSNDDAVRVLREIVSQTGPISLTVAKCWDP
Briefly: Surface plasmon resonance. It is filed as binding. As for the experimental part:
Studies on the interaction between compounds and Dvl PDZ domain were performed by surface plasmon resonance spectroscopy using the ProteOn™ XPR36 protein interaction array system (Bio‐Rad Laboratories, Inc., Hercules, CA). Purified Dvl PDZ domain was immobilized on a sensor chip, and then, various concentration of KY‐02327 in ProteOn PBS/Tween running buffer (PBS, pH 7.4 with 0.05% Tween 20) was flowed over the chip at a flow rate of 100 μl/min. The refractive index reflecting the mass concentration on the sensor surface is measured according to the manufacturer's instruction. Data were analyzed using ProteOn Manager Software 2.0 (Bio‐Rad Laboratories, Inc.).
A general note: Surface plasmon resonance follows binding to a sensor surface in real time, without labels.

The subject of series [1] is ex vivo‐cultured calvaria. Briefly: Ex vivo calvaria culture, thickness. It is filed as cell-based, mouse. The settings on record: 7 days. As for the experimental part:
Figure 1 Identification and characterization of small molecules competing Dvl–CXXC5 binding in vitro • A A scheme for in vitro screening method of small molecules competing Dvl–CXXC5 binding. Briefly, purified Dvl PDZ domain was attached to the polystyrene surface of each well of 96‐well plates. Then, PolyR‐DBM (polyarginine‐conjugated Dvl binding motif tagged with FITC) (Kim et al, 2015) was added to each well and allowed to bind to the Dvl PDZ domain; 10 μM small‐molecule compound was added to each well, and the compounds competing with Dvl PZD‐PolyR‐DBM binding were measured by a microplate reader to screen the compounds reducing fluorescence signal. • B Screening results of compounds competing Dvl–CXXC5 interaction. […] The relative numbers of β‐catenin‐positive nuclei were counted (D). […] The calvaria thicknesses were measured from the images using Image Pro software (F). […] (error bars), and significance was assessed using unpaired Student's t‐test.
Figure 3 Effect of KY‐02061 on Wnt/β‐catenin pathway, osteoblast differentiation, and ex vivo‐cultured calvaria growth • A MC3T3E1 cells were transfected with pTOPFLASH together with pCMV‐β‐gal. […] The luciferase activities of whole‐cell lysates were measured and normalized with β‐galactosidase activities. […] The calvaria thicknesses were measured from the stained sections using Image Pro software (E). […]

Where two headings read alike, the source gives them in different places.

Turning to `CCOC(=O)c1cc2cc(O)ccc2n1CC(=O)NCCN1CCCCC1` [KY‐02327], the “Factor (revertant colonies treated plate / vehicle control plate)” value is listed as 1.0 in the series on TA-98 (TA-98, Without S-9 mix); 1.0 in the series on TA-100 (TA-100, With S-9 mix); 1.0 in the series with TA-100 (TA-100, Without S-9 mix). In addition, the “Revertant colonies/plate (Mean)” value in the series on TA-98 (TA-98, Without S-9 mix, dose (g/plate): KY-02327 1000, 2-NF 1) turned out to be 19 colonies/plate; in the series on TA-100 (TA-100, With S-9 mix, dose (g/plate): KY-02327 1000, B.P 2), 117 ± 8 colonies/plate; with TA-100 (TA-100, Without S-9 mix, dose (g/plate): KY-02327 1000, S.A 1) it was 123 ± 6 colonies/plate. Further, the “genetic toxicity in bacterial reverse mutation assay” value in the series with TA-98 (TA-98 and TA-100) is “no genetic toxicity”. In addition, the “binding to Dvl PDZ domain by surface plasmon resonance” value at Dvl PDZ domain is “binds with Dvl PDZ domain in a dose‐dependent manner”.

Regarding `CCOC(=O)Cn1c(C(=O)OCC)cc2cc(OS(=O)(=O)c3ccc(C)cc3)ccc21` [KY‐02061], the “increase of thickness of ex vivo‐cultured calvaria compared with DMSO‐treated control” value in series [1] (2 μM) is 51.2%. Besides, the “thickness of ex vivo‐cultured calvaria, dose dependence” value in series [1] is “increased”.
